The values below come from US12528786B2, “Plasma kallikrein inhibitors” (Merck Sharp & Dohme LLC, priority 2020, dated 2026).

T1 sequence (P03952 391-638 limits assumed): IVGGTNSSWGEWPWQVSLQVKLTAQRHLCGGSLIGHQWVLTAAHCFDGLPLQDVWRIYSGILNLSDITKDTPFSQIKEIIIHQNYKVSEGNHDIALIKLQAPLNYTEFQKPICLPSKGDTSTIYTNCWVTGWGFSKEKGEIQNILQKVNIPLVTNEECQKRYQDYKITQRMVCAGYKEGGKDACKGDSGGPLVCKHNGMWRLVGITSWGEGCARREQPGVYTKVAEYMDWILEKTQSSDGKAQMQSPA
T1 sequence (P03952 20-390 partner limits assumed): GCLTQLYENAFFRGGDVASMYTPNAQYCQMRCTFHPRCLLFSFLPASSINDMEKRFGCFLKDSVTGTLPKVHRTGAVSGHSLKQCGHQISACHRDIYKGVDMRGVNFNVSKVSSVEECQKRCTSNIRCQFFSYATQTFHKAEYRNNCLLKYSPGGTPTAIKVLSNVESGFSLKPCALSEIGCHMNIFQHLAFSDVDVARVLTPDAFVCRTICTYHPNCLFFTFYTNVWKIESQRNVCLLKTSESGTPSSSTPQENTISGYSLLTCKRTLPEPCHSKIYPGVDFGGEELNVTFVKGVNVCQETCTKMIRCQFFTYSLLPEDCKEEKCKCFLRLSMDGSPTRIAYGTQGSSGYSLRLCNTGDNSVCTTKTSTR

This assay concerns the target T1, Human plasma kallikrein (Homo sapiens, UniProt P03952).
T1 construct: yields a heavy chain (371 amino acids) and a light chain (248 amino acids); purchased Enzyme Research Laboratories
Put plainly: Kallikrein Assay (fluorogenic substrate hydrolysis, AFC release). The class given is biochemical. The following applies: purified Human plasma kallikrein 0.5 nM; substrate Acetyl-K—P—R-AFC 100 mM; 50 mM HEPES pH 7.4. Put shortly:
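Enzyme–inhibitor equilibrated before substrate dilution to ≤0.2 Km; human plasma kallikrein at 0.5 nM final, Acetyl-K-P-R-AFC substrate, HEPES pH 7.4 buffer with NaCl, CaCl2, PEG 8000, at room temperature or 37° C. Linear-phase fluorescence rate gives percent inhibition, four-parameter logistic IC50, then Cheng-Prusoff Ki.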
In turn, `CC(c1ncc(N2C[C@H]3C[C@H]3C2=O)cc1F)n1cc(C(=O)N[C@H]2C[C@@H](c3cc(Cl)ccc3C#N)C2)nn1` (single isomer, unassigned) [Example 93, N-((cis)-3-(5-chloro-2-cyanophenyl)cyclobutyl)-1-((S or R)-1-(3-fluoro-5-((1R,5S)-2-oxo-3-azabicyclo[3.1.0]hexan-3-yl)pyridin-2-yl)ethyl)-1H-1,2,3-triazole-4-carboxamide] returned an IC50 of 4.3 nM.
With `Cc1nc(N2C[C@H]3C[C@H]3C2=O)ccc1C(C)n1cc(C(=O)N[C@H]2C[C@@H](c3cc(Cl)ccc3C#N)C2)nn1` (single isomer, unassigned) [Example 94, N-((cis)-3-(5-chloro-2-cyanophenyl)cyclobutyl)-1-((R or S)-1-(2-methyl-6-((1R,5S)-2-oxo-3-azabicyclo[3.1.0]hexan-3-yl)pyridin-3-yl)ethyl)-1H-1,2,3-triazole-4-carboxamide], half-maximal inhibition (IC50) required 178 nM.
As to `Cc1nc(N2C[C@H]3C[C@H]3C2=O)ccc1C(C)n1cc(C(=O)N[C@H]2C[C@@H](c3cc(Cl)ccc3C#N)C2)nn1` (single isomer, unassigned) [Example 95, N-((cis)-3-(5-chloro-2-cyanophenyl)cyclobutyl)-1-((S or R)-1-(2-methyl-6-((1R,5S)-2-oxo-3-azabicyclo[3.1.0]hexan-3-yl)pyridin-3-yl)ethyl)-1H-1,2,3-triazole-4-carboxamide], the midpoint of inhibition, the IC50, lay at 10.7 nM.
As to `Cc1c(C(C)n2cc(C(=O)N[C@H]3C[C@@H](c4cc(Cl)ccc4C#N)C3)nn2)cnc(N2C[C@H]3C[C@H]3C2=O)c1F` (single isomer, unassigned) [Example 96, N-((cis)-3-(5-chloro-2-cyanophenyl)cyclobutyl)-1-((R or S)-1-(5-fluoro-4-methyl-6-((1R,5S)-2-oxo-3-azabicyclo[3.1.0]hexan-3-yl)pyridin-3-yl)ethyl)-1H-1,2,3-triazole-4-carboxamide], the IC50 was 0.2 nM.
The result for `Cc1c(C(C)n2cc(C(=O)N[C@H]3C[C@@H](c4cc(Cl)ccc4C#N)C3)nn2)cnc(N2C[C@H]3C[C@H]3C2=O)c1F` (single isomer, unassigned) [Example 97, N-((cis)-3-(5-chloro-2-cyanophenyl)cyclobutyl)-1-((S or R)-1-(5-fluoro-4-methyl-6-((1R,5S)-2-oxo-3-azabicyclo[3.1.0]hexan-3-yl)pyridin-3-yl)ethyl)-1H-1,2,3-triazole-4-carboxamide] reads 4.4 nM; that for `Cc1ccc(C#N)c([C@H]2C[C@@H](NC(=O)c3cn(C(C)c4cnc(N5C[C@H]6C[C@H]6C5=O)c(C)c4C)nn3)C2)n1` (single isomer, unassigned) [Example 98, N-((cis)-3-(3-cyano-6-methylpyridin-2-yl)cyclobutyl)-1-((R or S)-1-(4,5-dimethyl-6-((1R,5S)-2-oxo-3-azabicyclo[3.1.0]hexan-3-yl)pyridin-3-yl)ethyl)-1H-1,2,3-triazole-4-carboxamide], 27.5 nM.
Regarding `Cc1ccc(C#N)c([C@H]2C[C@@H](NC(=O)c3cn(C(C)c4cnc(N5C[C@H]6C[C@H]6C5=O)c(C)c4C)nn3)C2)n1` (single isomer, unassigned) [Example 99, N-((cis)-3-(3-cyano-6-methylpyridin-2-yl)cyclobutyl)-1-((S or R)-1-(4,5-dimethyl-6-((1R,5S)-2-oxo-3-azabicyclo[3.1.0]hexan-3-yl)pyridin-3-yl)ethyl)-1H-1,2,3-triazole-4-carboxamide], half-maximal inhibition (IC50) was put at 0.6 nM.
Take `COc1cc(C(C)n2cc(C(=O)N[C@H]3C[C@@H](c4cc(Cl)ccc4C#N)C3)nn2)cnc1N1C[C@H]2C[C@H]2C1=O` (single isomer, unassigned) [Example 101, N-((cis)-3-(5-chloro-2-cyanophenyl)cyclobutyl)-1-((R or S)-1-(5-methoxy-6-((1R,5S)-2-oxo-3-azabicyclo[3.1.0]hexan-3-yl)pyridin-3-yl)ethyl)-1H-1,2,3-triazole-4-carboxamide]: half-maximal inhibition (IC50) was put at 1.8 nM.
The result for `COc1cc(C(C)n2cc(C(=O)N[C@H]3C[C@@H](c4cc(Cl)ccc4C#N)C3)nn2)cnc1N1C[C@H]2C[C@H]2C1=O` (single isomer, unassigned) [Example 102, N-((cis)-3-(5-chloro-2-cyanophenyl)cyclobutyl)-1-((S or R)-1-(5-methoxy-6-((1R,5S)-2-oxo-3-azabicyclo[3.1.0]hexan-3-yl)pyridin-3-yl)ethyl)-1H-1,2,3-triazole-4-carboxamide] reads 3.2 nM; that for `CC(c1cnc(N2C[C@H]3C[C@H]3C2=O)c(F)c1)n1cc(C(=O)N[C@H]2C[C@@H](c3cc(Cl)ccc3C#N)C2)nn1` (single isomer, unassigned) [Example 103, N-((cis)-3-(5-chloro-2-cyanophenyl)cyclobutyl)-1-((R or S)-1-(5-fluoro-6-((1R,5S)-2-oxo-3-azabicyclo[3.1.0]hexan-3-yl)pyridin-3-yl)ethyl)-1H-1,2,3-triazole-4-carboxamide], 2.1 nM.
`CC(c1cnc(N2C[C@H]3C[C@H]3C2=O)c(F)c1)n1cc(C(=O)N[C@H]2C[C@@H](c3cc(Cl)ccc3C#N)C2)nn1` (single isomer, unassigned) [Example 104, N-((cis)-3-(5-chloro-2-cyanophenyl)cyclobutyl)-1-((S or R)-1-(5-fluoro-6-((1R,5S)-2-oxo-3-azabicyclo[3.1.0]hexan-3-yl)pyridin-3-yl)ethyl)-1H-1,2,3-triazole-4-carboxamide] returned an IC50 of 4.3 nM.
With `COc1cc(C(C)n2cc(C(=O)N[C@H]3C[C@@](C)(c4cc(Cl)ccc4C#N)C3)nn2)cnc1N1C[C@H]2C[C@H]2C1=O` (single isomer, unassigned) [Example 105, N-((cis)-3-(5-chloro-2-cyanophenyl)-3-methylcyclobutyl)-1-((R or S)-1-(5-methoxy-6-((1R,5S)-2-oxo-3-azabicyclo[3.1.0]hexan-3-yl)pyridin-3-yl)ethyl)-1H-1,2,3-triazole-4-carboxamide], half-maximal inhibition (IC50) required 0.6 nM.
In the case of `COc1cc(C(C)n2cc(C(=O)N[C@H]3C[C@@](C)(c4cc(Cl)ccc4C#N)C3)nn2)cnc1N1C[C@H]2C[C@H]2C1=O` (single isomer, unassigned) [Example 106, N-((cis)-3-(5-chloro-2-cyanophenyl)-3-methylcyclobutyl)-1-((S or R)-1-(5-methoxy-6-((1R,5S)-2-oxo-3-azabicyclo[3.1.0]hexan-3-yl)pyridin-3-yl)ethyl)-1H-1,2,3-triazole-4-carboxamide], the IC50 amounted to 2.2 nM.
In the case of `CC(c1cnc(N2C[C@H]3C[C@H]3C2=O)c(N)c1)n1cc(C(=O)N[C@H]2C[C@@H](c3cc(Cl)ccc3C#N)C2)nn1` (single isomer, unassigned) [Example 107, 1-((R or S)-1-(5-amino-6-((1R,5S)-2-oxo-3-azabicyclo[3.1.0]hexan-3-yl)pyridin-3-yl)ethyl)-N-((cis)-3-(5-chloro-2-cyanophenyl)cyclobutyl)-1H-1,2,3-triazole-4-carboxamide], the IC50 was determined as 4.8 nM.
In turn, `CC(c1cnc(N2C[C@H]3C[C@H]3C2=O)c(N)c1)n1cc(C(=O)N[C@H]2C[C@@H](c3cc(Cl)ccc3C#N)C2)nn1` (single isomer, unassigned) [Example 108, 1-((S or R)-1-(5-amino-6-((1R,5S)-2-oxo-3-azabicyclo[3.1.0]hexan-3-yl)pyridin-3-yl)ethyl)-N-((cis)-3-(5-chloro-2-cyanophenyl)cyclobutyl)-1H-1,2,3-triazole-4-carboxamide] came in with an IC50 of 6.5 nM.
Molecule `Cc1nc(C(C)n2cc(C(=O)N[C@H]3C[C@@](C)(c4cc(Cl)ccc4C#N)C3)nn2)cnc1N1C[C@H]2C[C@H]2C1=O` (single isomer, unassigned) [Example 109, N-((cis)-3-(5-chloro-2-cyanophenyl)-3-methylcyclobutyl)-1-((R or S)-1-(6-methyl-5-((1R,5S)-2-oxo-3-azabicyclo[3.1.0]hexan-3-yl)pyrazin-2-yl)ethyl)-1H-1,2,3-triazole-4-carboxamide] registered an IC50 of 0.2 nM.
With `Cc1nc(C(C)n2cc(C(=O)N[C@H]3C[C@@](C)(c4cc(Cl)ccc4C#N)C3)nn2)cnc1N1C[C@H]2C[C@H]2C1=O` (single isomer, unassigned) [Example 110, N-((cis)-3-(5-chloro-2-cyanophenyl)-3-methylcyclobutyl)-1-((S or R)-1-(6-methyl-5-((1R,5S)-2-oxo-3-azabicyclo[3.1.0]hexan-3-yl)pyrazin-2-yl)ethyl)-1H-1,2,3-triazole-4-carboxamide], the IC50 worked out at 1.1 nM.
As to `COc1c(N2C[C@H]3C[C@H]3C2=O)ncc(C(C)n2cc(C(=O)N[C@H]3C[C@@H](c4cc(Cl)ccc4C#N)C3)nn2)c1C` (single isomer, unassigned) [Example 111, N-((cis)-3-(5-chloro-2-cyanophenyl)cyclobutyl)-1-((R or S)-1-(5-methoxy-4-methyl-6-((1R,5S)-2-oxo-3-azabicyclo[3.1.0]hexan-3-yl)pyridin-3-yl)ethyl)-1H-1,2,3-triazole-4-carboxamide], 0.3 nM corresponded to half-maximal inhibition (IC50).
As for `COc1c(N2C[C@H]3C[C@H]3C2=O)ncc(C(C)n2cc(C(=O)N[C@H]3C[C@@H](c4cc(Cl)ccc4C#N)C3)nn2)c1C` (single isomer, unassigned) [Example 112, N-((cis)-3-(5-chloro-2-cyanophenyl)cyclobutyl)-1-((S or R)-1-(5-methoxy-4-methyl-6-((1R,5S)-2-oxo-3-azabicyclo[3.1.0]hexan-3-yl)pyridin-3-yl)ethyl)-1H-1,2,3-triazole-4-carboxamide], the IC50 came out at 6.7 nM.
As for `Cc1ccc(C#N)c([C@H]2C[C@@H](NC(=O)c3cn(C(C)c4cnc(N5C[C@H]6C[C@H]6C5=O)c(C)c4C)nn3)C2)c1` (single isomer, unassigned) [Example 113, N-((cis)-3-(2-cyano-5-methylphenyl)cyclobutyl)-1-((R or S)-1-(4,5-dimethyl-6-((1R,5S)-2-oxo-3-azabicyclo[3.1.0]hexan-3-yl)pyridin-3-yl)ethyl)-1H-1,2,3-triazole-4-carboxamide], the figure is 0.4 nM.

The term IC50 denotes the midpoint of a concentration-inhibition curve. Read a high IC50 as weaker potency.
